Laboratory results: patent publication US12479804B2, “Herbicidal compounds” (SYNGENTA CROP PROTECTION AG, priority 2019, dated 2025)

Assays:
Assay in all cases: Glasshouse herbicidal test, pre- and post-emergence, percentage damage to the plant
Format in all cases: in vivo
Avena fatua (AVEFA) = conditions: 250 g/h, evaluated after 13 days; for AVEFA POST percentage damage caused to the plant (five-point scale): post-emergence; for AVEFA PRE percentage damage caused to the plant (five-point scale): pre-emergence
Protocol: (§1) Seeds of a variety of test species are sown in standard soil in pots (Lolium perenne (LOLPE), Setaria faberi (SETFA), Alopecurus myosuroides (ALOMY), Echinochloa crus-galli (ECHCG), Avena fatua (AVEFA)). After cultivation for one day (pre-emergence) or after 8 days cultivation (post-emergence) under controlled conditions in a glasshouse (at 24/16° C., day/night; 14 hours light; 65% humidity), the plants are sprayed with an aqueous spray solution derived from the formulation of the technical active ingredient in acetone/water (50:50) solution containing 0.5% Tween 20 (polyoxyethelyene sorbitan monolaurate, CAS RN 9005-64-5). Compounds are applied at 250 g/h. The test plants are then grown in a glasshouse under controlled conditions in a glasshouse (at 24/16° C., day/night; 14 hours light; 65% humidity) and watered twice daily. After 13 days for pre and post-emergence, the test is evaluated for the percentage damage caused to the plant. The biological activities are shown in the following table on a five-point scale (5=80-100%; 4=60-79%; 3=40-59%; 2=20-39%; 1=0-19%).

[1] = test system: Echinochloa crus-galli (ECHCG); conditions: 250 g/h, evaluated after 13 days; for ECHCG POST percentage damage caused to the plant (five-point scale): post-emergence; for ECHCG PRE percentage damage caused to the plant (five-point scale): pre-emergence
Protocol: as §1

[2] = test system: Alopecurus myosuroides (ALOMY); conditions: 250 g/h, evaluated after 13 days; for ALOMY POST percentage damage caused to the plant (five-point scale): post-emergence; for ALOMY PRE percentage damage caused to the plant (five-point scale): pre-emergence
Protocol: as §1

Lolium perenne (LOLPE) = conditions: 250 g/h, evaluated after 13 days; for LOLPE POST percentage damage caused to the plant (five-point scale): post-emergence; for LOLPE PRE percentage damage caused to the plant (five-point scale): pre-emergence
Protocol: as §1

Setaria faberi (SETFA) = conditions: 250 g/h, evaluated after 13 days; for SETFA POST percentage damage caused to the plant (five-point scale): post-emergence; for SETFA PRE percentage damage caused to the plant (five-point scale): pre-emergence
Protocol: as §1

Row | SMILES | AVEFA POST percentage damage caused to the plant (five-point scale) (Avena fatua (AVEFA)) | AVEFA PRE percentage damage caused to the plant (five-point scale) (Avena fatua (AVEFA)) | ECHCG POST percentage damage caused to the plant (five-point scale) [1] | ECHCG PRE percentage damage caused to the plant (five-point scale) [1] | ALOMY POST percentage damage caused to the plant (five-point scale) [2] | ALOMY PRE percentage damage caused to the plant (five-point scale) [2] | LOLPE POST percentage damage caused to the plant (five-point scale) (Lolium perenne (LOLPE)) | LOLPE PRE percentage damage caused to the plant (five-point scale) (Lolium perenne (LOLPE)) | SETFA POST percentage damage caused to the plant (five-point scale) (Setaria faberi (SETFA)) | SETFA PRE percentage damage caused to the plant (five-point scale) (Setaria faberi (SETFA))
1 | CC#Cc1cc(C)c(C2C(=O)CC3(CCN(C(C)=O)CC3C)CC2=O)c(C)c1 (stereo not drawn) [Compound A59] | 5 (5=80-100%) | 5 (5=80-100%) | 5 (5=80-100%) | 5 (5=80-100%) | 5 (5=80-100%) | 5 (5=80-100%) | 5 (5=80-100%) | 5 (5=80-100%) | 5 (5=80-100%) | 5 (5=80-100%)
2 | CC#Cc1cc(C)c(C2=C(OC(C)=O)CC3(CCCN(C(C)=O)CC3)CC2=O)c(C)c1 (stereo not drawn) [Compound P1] | 5 (5=80-100%) | 5 (5=80-100%) | 5 (5=80-100%) | 5 (5=80-100%) | 5 (5=80-100%) | 5 (5=80-100%) | 5 (5=80-100%) | 5 (5=80-100%) | 5 (5=80-100%) | 5 (5=80-100%)
3 | CC#Cc1cc(C)c(C2=C(OC(C)=O)CC3(CCN(C(C)=O)C(=O)C3)CC2=O)c(C)c1 (stereo not drawn) [Compound P2] | 5 (5=80-100%) | 5 (5=80-100%) | – | 5 (5=80-100%) | 5 (5=80-100%) | 5 (5=80-100%) | 5 (5=80-100%) | 5 (5=80-100%) | 5 (5=80-100%) | 5 (5=80-100%)
4 | CC#Cc1cc(C)c(C2=C(OC(=O)OC)CC3(CCN(C(C)=O)C3)CC2=O)c(C)c1 (stereo not drawn) [Compound P3] | 5 (5=80-100%) | 4 (4=60-79%) | 5 (5=80-100%) | 5 (5=80-100%) | 5 (5=80-100%) | 5 (5=80-100%) | 5 (5=80-100%) | 5 (5=80-100%) | 5 (5=80-100%) | 5 (5=80-100%)
